Source: ChEMBL document CHEMBL1158267, “Lycaconitine revisited: partial synthesis and neuronal nicotinic acetylcholine receptor affinities” (J Nat Prod, 1996)
pKi: −log10 of the molar value.

Tests used:
[1] = Toxicity in iv dosed mouse; type: organism-based; conditions: in vivo
[2] = target: Neuronal acetylcholine receptor; alpha4/beta2 (Rattus norvegicus, UniProt P09483+P12390); assay: Displacement of [3H]cytisine from alpha4beta2 nAChR in rat brain membrane; type: cell membranes
[3] = target: Neuronal acetylcholine receptor subunit alpha-7 (Rattus norvegicus, UniProt Q05941); assay: Displacement of [125I]alpha-bungarotoxin from alpha7 nAChR in rat brain membrane; type: cell membranes
Sequence of Neuronal acetylcholine receptor subunit alpha-7 (Q05941 whole entry): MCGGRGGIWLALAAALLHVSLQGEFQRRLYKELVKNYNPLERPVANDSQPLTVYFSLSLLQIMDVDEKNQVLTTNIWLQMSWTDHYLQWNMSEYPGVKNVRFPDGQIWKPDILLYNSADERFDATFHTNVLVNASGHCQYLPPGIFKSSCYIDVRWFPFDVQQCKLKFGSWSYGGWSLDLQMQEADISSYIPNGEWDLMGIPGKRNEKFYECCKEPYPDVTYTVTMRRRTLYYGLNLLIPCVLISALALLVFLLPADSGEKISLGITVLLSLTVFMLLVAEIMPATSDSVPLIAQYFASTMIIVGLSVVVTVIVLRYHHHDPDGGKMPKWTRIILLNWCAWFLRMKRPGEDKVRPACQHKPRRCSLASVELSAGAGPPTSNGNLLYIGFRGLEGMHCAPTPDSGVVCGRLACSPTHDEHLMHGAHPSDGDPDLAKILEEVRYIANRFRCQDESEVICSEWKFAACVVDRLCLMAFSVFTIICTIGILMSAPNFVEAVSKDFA

Sequence of Neuronal acetylcholine receptor; alpha4/beta2 (P09483 whole entry): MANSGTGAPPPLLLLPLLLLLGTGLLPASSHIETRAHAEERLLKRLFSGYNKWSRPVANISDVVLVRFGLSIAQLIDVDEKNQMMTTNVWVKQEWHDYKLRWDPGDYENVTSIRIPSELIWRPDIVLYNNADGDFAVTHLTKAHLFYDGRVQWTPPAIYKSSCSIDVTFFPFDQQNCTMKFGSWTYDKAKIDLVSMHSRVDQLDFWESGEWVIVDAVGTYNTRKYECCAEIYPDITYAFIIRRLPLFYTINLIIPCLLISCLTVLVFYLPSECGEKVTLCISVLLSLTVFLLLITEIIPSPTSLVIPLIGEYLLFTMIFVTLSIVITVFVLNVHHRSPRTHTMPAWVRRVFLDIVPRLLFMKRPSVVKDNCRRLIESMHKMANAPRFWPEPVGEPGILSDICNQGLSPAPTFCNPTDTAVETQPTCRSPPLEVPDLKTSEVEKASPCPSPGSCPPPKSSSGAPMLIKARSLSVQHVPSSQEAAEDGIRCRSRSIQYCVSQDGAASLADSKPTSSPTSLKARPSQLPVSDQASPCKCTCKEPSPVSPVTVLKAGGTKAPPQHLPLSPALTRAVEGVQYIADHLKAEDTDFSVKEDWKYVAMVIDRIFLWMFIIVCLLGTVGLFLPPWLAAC
Sequence of Neuronal acetylcholine receptor; alpha4/beta2 (P12390 whole entry): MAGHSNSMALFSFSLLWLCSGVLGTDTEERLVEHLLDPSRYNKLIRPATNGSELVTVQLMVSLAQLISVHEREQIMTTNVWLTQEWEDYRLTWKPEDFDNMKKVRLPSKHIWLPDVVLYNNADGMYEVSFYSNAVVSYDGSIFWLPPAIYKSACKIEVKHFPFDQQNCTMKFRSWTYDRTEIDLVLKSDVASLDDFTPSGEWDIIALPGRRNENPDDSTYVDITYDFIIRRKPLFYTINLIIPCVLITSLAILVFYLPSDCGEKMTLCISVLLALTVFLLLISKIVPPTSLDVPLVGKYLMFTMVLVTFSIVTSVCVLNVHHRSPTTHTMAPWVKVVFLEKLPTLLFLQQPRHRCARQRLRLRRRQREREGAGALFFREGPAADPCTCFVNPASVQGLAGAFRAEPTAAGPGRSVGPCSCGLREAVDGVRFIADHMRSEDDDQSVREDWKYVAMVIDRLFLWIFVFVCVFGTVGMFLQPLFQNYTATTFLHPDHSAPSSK

Q: For CCN1C[C@]2(COC(=O)c3ccccc3N3C(=O)C[C@H](C)C3=O)CC[C@H](OC)[C@@]34[C@@H]5C[C@H]6[C@H](OC)[C@@H]5[C@](O)(C[C@@H]6OC)[C@](O)([C@@H](OC)[C@H]23)[C@@H]14 [METHYLLYCACONITINE], which LD50 [1] is on record?
A: 3 mg/kg

Q: With CCN1C[C@]2(COC(=O)c3ccccc3N3C(=O)CCC3=O)CC[C@H](OC)[C@]34C1[C@](O)([C@@H](OC)[C@H]23)[C@@]1(O)C[C@H](OC)[C@H]2C[C@@H]4[C@@H]1[C@H]2OC [LYCACONITINE] as the compound, how does the LD50 [1] read?
A: 15 mg/kg

Q: And the pKi [2]?
A: 6.00

Q: And the pKi [3]?
A: 7.10
